Peptide text beside a SMILES is read from it. * marks the point of attachment. Cbz = O=C(OCc1ccccc1)*
Legend:
c-MYC, RPL15, RPL3 = experiment: Endogenous c-MYC, RPL15 and RPL3 proteins in A2058 cells; assay type: cell-based, human; conditions: 20 nM AZD6244 co-treated with 500 nM MG132
Experimental: (A) GFP and GFP-GR plasmids were co-transfected into HEK293T cells followed by treatments with 20 nM AZD6244, 20 μM U0126, or 200 nM 17-DMAG for 4 hr. (B) GFP-GR plasmids were co-transfected into HEK293T cells with HA-Ub-K48 plasmids, which encode a mutant ubiquitin that can be conjugated to protein substrates only via lysine 48. Following treatments with 20 nM AZD6244 or 200 nM 17-DMAG for 4 hr, GFP-GR proteins were precipitated and ubiquitination was detected using anti-HA antibodies. (C) Denatured firefly luciferases were incubated with lysates of A2058 cells treated with DMSO or 20 nM AZD6244 (mean±SD, n=4, ANOVA). (D) A2058 cells were treated with 20 nM AZD6244, and ubiquitinated proteins were detected in both detergent-soluble and -insoluble fractions using Lys48-specific ubiquitin antibodies. (E) A2058 cells stably expressing LacZ or HSF1^S326D were treated with 20 nM AZD6244 for 8 hr. (F) C57BL/6J mice were i.p. injected with DMSO or AZD6244 three times a week for 2 weeks. S: spleen; K: kidney; L: liver. (G) Experimental procedures of MS-based quantitation of ubiquitinated peptides, two technical replicates per treatment. […] (Q) Endogenous RPL15 and RPL3 proteins were detected in A2058 cells treated with 20 nM AZD6244 alone or co-treated with 500 nM MG132. (R) Endogenous RPL15 and RPL3 proteins were detected in A2058 cells stably expressing LacZ or HSF1^S326D with AZD6244 treatment. […]

[1] = test system: V5-TOR1AIP2, V5-RPL3, V5-RPL15; experiment: Levels and ubiquitination of V5-tagged proteins in HEK293T cells; assay type: cell-based; conditions: 500 nM MG132 co-treated with 20 nM AZD6244, 8 hr
A2058 cells [2] = experiment: Amyloid quantitation by ELISA in A2058 cells pre-incubated with ThT; assay type: cell-based, human; conditions: 10 μM ThT pre-incubation 6 hr, then inhibitors 24 hr
Experimental: (§1) FIGS. 5A-Y show MEK and proteasome inhibition provoke protein aggregation and amyloidogenesis. (A-B) WM115 cells treated with 20 nM AZD6244, 100 nM Bortezomib, or both for 24 hr were stained with Lys48-specific ubiquitin antibodies. Arrowheads mark ubiquitin-positive aggregates. Scale bar: 10 μm. Amounts of aggregates per cell were quantitated using ImageJ (median, n≥100, ANOVA). (C-F) Following transfection with polyQ79 plasmids alone or with both polyQ79 and HSF1^S326D plasmids for one day, HEK293T cells were treated with inhibitors as described in (A-B). Cells were either analyzed for aggregate size or stained with 10 μM ThT. (G) Treated tumor cell lines were stained with 10 μM ThT. Geometric means were used to calculate fold changes in ThT fluorescence intensity and the log 2(FC) values were presented as a heat map. […] Following treatments, AOs were quantitated by ELISA using A11 antibodies (mean±SD, n=3, ANOVA). (I) Intrinsic AOs were detected in human tumor cell lines (mean±SD, n=3, ANOVA). […] Amyloids were quantitated by ELISA (mean±SD, n=3, Student's t-test). […] AF formation was monitored by ThT binding (mean±SD, n=3, ANOVA). […] Amyloids were quantitated (mean±SD, n=3, Student's t-test). […] Viable cells were quantitated by CellTiter® blue (mean±SD, n=6, Student's t-test). […] Viable cells were quantitated (mean±SD, n=6, ANOVA). […]
To quantitate amyloid fibrils, detergent-insoluble proteins were extracted. […]

A2058 cells [3] = experiment: Viable A2058 cells by CellTiter Blue with amyloid blockers plus inhibitors; assay type: cell-based, human; conditions: 10 μM ThT pre-incubation 6 hr, then inhibitors 24 hr
Experimental: as §1
This figure is related to FIG. 5. […] (C) Quantitation of protein aggregate size. […]

Row | Structure (SMILES) | depletions of endogenous RPL15 and RPL3 by AZD6244 (c-MYC, RPL15, RPL3) | V5-RPL15 depletion by AZD6244 [1] | amyloid induction by inhibitors (A2058 cells [2]) | improvement of cellular growth and survival (A2058 cells [3]) [%]
1 | CC(C)C[C@@H](C=O)NC(=O)[C@H](CC(C)C)NC(=O)[C@H](CC(C)C)NC(=O)OCc1ccccc1 [MG132] (Cbz-Leu-Leu-Leu-aldehyde) | prevented | prevented | – | –
2 | Cc1ccc2c(c1)sc(-c1ccc(N(C)C)cc1)[n+]2C.[Cl-] [ThT, Thioflavin T] | – | – | suppressed | 50

From patent US20180369203A1, “METHODS OF TREATING CANCER BY ADMINISTERING A MEK INHIBITOR IN COMBINATION WITH A PROTEASOME INHIBITOR” (The Jackson Laboratory, priority 2015, published 2018)
